Laboratory results reported in patent US20230190852A1, “COMPOSITIONS AND METHODS FOR JOINT HEALTH” (Unigen, Inc., priority 2013, published 2023).
Marks after values point to notes of the source that are not given here.

Experiments:
[1] = test system: Rabbit cartilage explants; experiment: Ex vivo glycosaminoglycans (GAG) release assay; format: cell-based; settings: for activity at 6.25 µg/mL / activity at 12.5 µg/mL / activity at 25 µg/mL / activity at 50 µg/mL / activity at 100 µg/mL: Oryctolagus cuniculus, 24 h; for activity at 6.25 µg/mL: 6.25 μg/ml; for activity at 12.5 µg/mL: 12.5 μg/ml; for activity at 25 µg/mL: 25 μg/ml; for activity at 50 µg/mL: 50 μg/ml; for activity at 100 µg/mL: 100 μg/ml; for protective effect on rhIL-1α-mediated PG degradation / GAG release: rhIL-1α 5 ng/ml
Description: Articular cartilage from hock joints of rabbits (2.5 kg body weight) was removed immediately after each animal was sacrificed and articular cartilage explants were obtained by following the method described by Sandy et al. (Biochem. Biophy Acta 543:36, 1978). Briefly, after the articular surfaces were surgically exposed under sterile conditions, approximately 200-220 mg articular surfaces per joint were dissected and submerged into complete medium (DMEM, supplemented with heat inactivated 5% FBS; penicillin 100 U/ml; streptomycin 100 ug/ml). They were then rinsed several times with the complete medium and incubated for 1 to 2 days at 37° C. in a humidified 5% CO2/95% air incubator for stabilization. The complete medium was replaced with a basal medium (DMEM, supplemented with heat-inactivated 1% FBS, 10 mM HEPES, and penicillin 100 U/ml streptomycin 100 μg/ml). Approximately 30 mg cartilage pieces (2×3×0.35 mm/piece) were placed in 24-well plates and treated with given concentrations of test agents. After pretreatment for 1 h, 5 ng/ml of rhIL-1α was added to the culture medium and further incubated at 37° C. in a humidified 5% CO2/95% air incubator. The culture medium was collected 24 h later and stored at −20° C. until assay.
The amount of sulphated GAGs (e.g., released from proteoglycans) in the medium at the end of the reaction reflects the amount of articular cartilage degradation, which was determined using the commercially available 1,9-dimethy-methylene blue method according to the instructions of the manufacturer (Blyscan™ assay, Accurate Chemical and Scientific Corp., Westbury, N.Y.).

[2] = test system: Lewis rats; experiment: Carrageenan-induced rat paw edema model (paw edema and pain sensitivity); format: in vivo; settings: for Pain sensitivity (Analgesia), percent change vs. vehicle, 1 hr / Paw Edema (Inflammation), percent change vs. vehicle, 1 hr: 1 hr after treatment; for Pain sensitivity (Analgesia), percent change vs. vehicle, 3 hr / Paw Edema (Inflammation), percent change vs. vehicle, 3 hr: 3 hr after treatment; for Pain sensitivity (Analgesia), percent change vs. vehicle, 5 hr / Paw Edema (Inflammation), percent change vs. vehicle, 5 hr: 5 hr after treatment; for analgesic and anti-inflammatory activity: oral, rosmarinic acid 200 mg/kg, eriocitrin 100 mg/kg, NAG 166 mg/kg; for Pain sensitivity, percent change of vehicle / Paw edema, percent change of vehicle: 100 mg/kg oral 1 hr after carrageenan, female Lewis rats
Description: Local inflammation was induced by intraplantar injection of carrageenan λ (Sigma, St. Louis, Mo.; 100 μl of 1% [w/v] in saline) into the plantar surface of right hind paw of sedated rat (with 2.5% isoflurane) at time 0 (T=0) (Gamache et al., J Neurosurg. 65:679, 1986; Guay et al., J. Biol. Chem. 279:24866, 2004; Chou et al., Anesth. Analg. 97:1724, 2003). Rats were acclimated in a procedure room for 20-30 minutes before each measurement was taken. Allodynia was evaluated by measuring responsiveness to the tip of a Randell-Selitto paw pressure test applied perpendicular to the central plantar surface of the right hind paw. A positive response to the applied pressure, noted by sharp withdrawal of the paw, was recorded automatically by an electronic Von Frey Anesthesiometer (2390 series Electrovonfrey, IITC, Woodland Hills, Calif.) (Vivancos et al., Braz. J. Med. Biol. Res. 37:391, 2004). Mechanical allodynia was evaluated before carrageenan inoculation, and thereafter at 1 hr, 2 hr, 4 hr and 6 hr. Paw edema volume was measured with the use of Plethysmometer (IITC, Woodland Hills, Calif.; Model 520) at time 0 (before carrageenan), and then 1 hr, 2 hr, 4 hr, and 6 hr after carrageenan injection. Animals (N=5 per group) were orally gavaged with a positive control ibuprofen (Spectrum Chemical MFG, Gardena, Calif.) (100 or 200 mg/kg); test articles such as: extracts, and combinations of extracts at various doses from 100, 200, 300 to 400 mg/kg and vehicle control (propylene glycol) were given 1 hour after carrageenan inoculation unless specified otherwise.

[3] = rabbit cartilage explants with rhIL-1α 5 ng/ml (=100)
[4] = 100 mg/kg oral, listed as eriocitrin
[5] = rhIL-1α 5 ng/ml (IL-1α alone = 100)

SMILES	activity at 6.25 µg/mL [1, 3] [%]	activity at 12.5 µg/mL [1, 3] [%]	activity at 25 µg/mL [1, 3] [%]	activity at 50 µg/mL [1, 3] [%]	activity at 25 µg/mL [1, 5] [%]	activity at 50 µg/mL [1, 5] [%]	activity at 100 µg/mL [1, 5] [%]	Pain sensitivity, percent change of vehicle ([2]; 1 hr)	Paw edema, percent change of vehicle ([2]; 1 hr)	Pain sensitivity, percent change of vehicle ([2]; 3 hr)	Paw edema, percent change of vehicle ([2]; 3 hr)	Pain sensitivity, percent change of vehicle ([2]; 5 hr)	Paw edema, percent change of vehicle ([2]; 5 hr)	protective effect on rhIL-1α-mediated PG degradation / GAG release [1]	other results
COc1cc(O)c(CC=C(C)C)c(O)c1C(=O)/C=C/c1ccc(O)cc1 [Compound 13, xanthohumol]	77.4	55.3	59.2	51.2											
COc1cc(O)c(CC=C(C)C)c2c1C(=O)CC(c1ccc(O)cc1)O2 (stereo not drawn) [Compound 14, isoxanthohumol]	97.8	73.5	41.7	37.3											
CC(C)=CCC12Oc3c(c(O)cc(O)c3C3C=C(C)CC(c4ccc(O)cc4O)C3C(=O)c3ccc(O)cc3O)C(=O)C1(O)Oc1cc(O)ccc12 (stereo not drawn) [Compound 15, cathayanon A]	101	99.1	81.3	72.4											
C[C@@H]1O[C@@H](OC[C@H]2O[C@@H](Oc3cc(O)c4c(c3)O[C@H](c3ccc(O)c(O)c3)CC4=O)[C@H](O)[C@@H](O)[C@@H]2O)[C@H](O)[C@H](O)[C@H]1O [Eriocitrin]															Pain sensitivity (Analgesia), percent change vs. vehicle, 1 hr ([2]; 100 mg/kg oral): 20.4* %; Paw Edema (Inflammation), percent change vs. vehicle, 1 hr ([2]; 100 mg/kg oral): 17.2%; Pain sensitivity (Analgesia), percent change vs. vehicle, 1 hr [2, 4]: 20.4%; Pain sensitivity (Analgesia), percent change vs. vehicle, 3 hr ([2]; 100 mg/kg oral): 36.4* %; Paw Edema (Inflammation), percent change vs. vehicle, 3 hr ([2]; 100 mg/kg oral): 36.0* %; Pain sensitivity (Analgesia), percent change vs. vehicle, 3 hr [2, 4]: 36.4%; Paw Edema (Inflammation), percent change vs. vehicle, 3 hr [2, 4]: 36.0%; Pain sensitivity (Analgesia), percent change vs. vehicle, 5 hr ([2]; 100 mg/kg oral): 25.2* %; Paw Edema (Inflammation), percent change vs. vehicle, 5 hr ([2]; 100 mg/kg oral): 30.0* %; Pain sensitivity (Analgesia), percent change vs. vehicle, 5 hr [2, 4]: 25.2%; Paw Edema (Inflammation), percent change vs. vehicle, 5 hr [2, 4]: 30.0%; analgesic and anti-inflammatory activity [2]: significant anti-inflammatory and analgesic activities
CC(C)=CCc1c(-c2ccc(O)cc2O)oc2c(C3C=C(C)CC(c4ccc(O)cc4O)C3C(=O)c3ccc(O)cc3O)c(O)cc(O)c2c1=O (stereo not drawn) [Kuwanon G]					56.6	48	44.4	33.3* %	36.5* %	40.5* %	37.7* %	31.2* %	29.3* %		
CC(C)=CCc1c(-c2ccc(O)cc2O)oc2c3c(cc(O)c2c1=O)OC(C)(C)C=C3 [Morusin]					48.4	49.9	33.6	33.3* %	37.3* %	38.5* %	40.0* %	30.2* %	38.0* %	strong inhibitory effect	
OC[C@H]1O[C@@H](Oc2cc(O)cc(/C=C/c3ccc(O[C@@H]4O[C@H](CO)[C@@H](O)[C@H](O)[C@H]4O)cc3O)c2)[C@H](O)[C@@H](O)[C@@H]1O [Mulberoside A, mulberroside A]					73.1	75.8	70.5	54.2* %	48.4* %	52.2* %	50.6* %	35.5* %	37.3* %	strong inhibitory effect	
Oc1cc(O)cc(/C=C/c2ccc(O)cc2O)c1 [Oxyresveratrol]					59.8			53.3* %	44.7* %	54.8* %	54.5* %	38.5* %	38.3* %	strong inhibitory effect	
O=C(/C=C/c1ccc(O)c(O)c1)O[C@H](Cc1ccc(O)c(O)c1)C(=O)O [RA, Rosmarinic acid]															Pain sensitivity (Analgesia), percent change vs. vehicle, 1 hr ([2]; 200 mg/kg oral): 38.9%; Paw Edema (Inflammation), percent change vs. vehicle, 1 hr ([2]; 200 mg/kg oral): 29.9%; Pain sensitivity (Analgesia), percent change vs. vehicle, 3 hr ([2]; 200 mg/kg oral): 45.0%; Paw Edema (Inflammation), percent change vs. vehicle, 3 hr ([2]; 200 mg/kg oral): 35.7%; Pain sensitivity (Analgesia), percent change vs. vehicle, 5 hr ([2]; 200 mg/kg oral): 30.6%; Paw Edema (Inflammation), percent change vs. vehicle, 5 hr ([2]; 200 mg/kg oral): 34.6%; analgesic and anti-inflammatory activity [2]: significant anti-inflammatory and analgesic activities
CC1(C)C=Cc2c(ccc3c2OC[C@@H](c2ccc(O)cc2O)C3)O1 [glabridin]	66.1	47.9	47.5	46.3											
